In brackets after ≈: the same amount, converted by molar mass.

This passage reports Ratio and MIC results from ChEMBL document CHEMBL4619745, “Identification of 2-((2,3-dihydrobenzo[b][1,4]dioxin-6-yl)amino)-N-phenylpropanamides as a novel class of potent DprE1 inhibitors” (Bioorg Med Chem Lett, 2020).

The test system of experiment [1] is Mycobacterium tuberculosis. Put plainly: Ratio of MIC for Mycobacterium tuberculosis H37Rv overexpressing DprE1 to MIC for Mycobacterium tuberculosis H37Rv. The class given is functional.
For experiment [2], the system named is Mycobacterium tuberculosis. The experiment in a line: Antimycobacterial activity against Mycobacterium tuberculosis H37Rv overexpressing DprE1. The class given is functional.

Regarding `CC(Nc1ccc2c(c1)OCCO2)C(=O)Nc1ccc(Br)cc1` (racemic), in experiment [1], the Ratio is reported as 8. Besides, in experiment [2], the MIC was 62.5 µM (≈ 23.6 µg/mL).

As a reminder, the MIC is the lowest concentration that inhibits growth of the organism.
